Data: patent publication US8962608B2, “Cycloalkylnitrile pyrazole carboxamides as janus kinase inhibitors” (Merck Sharp & Dohme Corp., priority 2011, dated 2015)

These molecules were tested against JAK1 (recombinant purified GST-tagged catalytic domain) (Homo sapiens (Human), UniProt P23458) (assay: biochemical).
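Further: biochemical assay with HTRF read-out.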

Sequence of JAK1 (recombinant purified GST-tagged catalytic domain) (P23458 875-1153): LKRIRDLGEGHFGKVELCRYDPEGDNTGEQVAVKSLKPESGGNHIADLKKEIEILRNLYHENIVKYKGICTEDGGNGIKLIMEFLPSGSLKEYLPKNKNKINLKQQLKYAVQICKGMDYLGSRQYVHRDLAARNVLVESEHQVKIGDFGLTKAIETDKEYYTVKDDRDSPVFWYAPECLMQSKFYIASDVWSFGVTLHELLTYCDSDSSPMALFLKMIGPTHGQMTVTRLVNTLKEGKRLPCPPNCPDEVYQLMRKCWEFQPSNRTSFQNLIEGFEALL

SMILES | IC50 [nM]
C[C@@H]1C[C@@H](C)N1[C@@H]1CC[C@H](n2cc(C(N)=O)c(Nc3ccc(C(F)(F)F)cc3)n2)[C@@H](C#N)C1 (single isomer, unassigned) [Example 28-30, 1-{(1S,2S,4R or 1R,2R,4S)-2-cyano-4-[(2R,4R or 2S,4S)-2,4-dimethylazetidin-1-yl]cyclohexyl}-3-{[4-(trifluoromethyl)phenyl]amino}-1H-pyrazole-4-carboxamide] | 15
CN(C)[C@H]1CC[C@H](n2cc(C(N)=O)c(Nc3ccc(OC(F)F)cc3)n2)[C@@H](C#N)C1 (single isomer, unassigned) [Example 28-104, 1-[(1S,2S,4S or 1R,2R,4R)-2-cyano-4-(dimethylamino)cyclohexyl]-3-{[4-(difluoromethoxy)phenyl]amino}-1H-pyrazole-4-carboxamide] | 0.4
COC1CN([C@H]2CC[C@H](n3cc(C(N)=O)c(Nc4ccc(C(F)(F)F)cc4)n3)[C@@H](C#N)C2)C1 (single isomer, unassigned) [Example 28-99, 1-[(1S,2S,4S or 1R,2R,4R)-2-cyano-4-(3-methoxyazetidin-1-yl)cyclohexyl]-3-{[4-(trifluoromethyl)phenyl]amino}-1H-pyrazole-4-carboxamide] | 3
CN(C)[C@@H]1CC[C@H](n2cc(C(N)=O)c(Nc3ccc(OC(F)F)cc3)n2)[C@@H](C#N)C1 (single isomer, unassigned) [Example 28-95, 1-[(1S,2S,4R or 1R,2R,4S)-2-cyano-4-(dimethylamino)cyclohexyl]-3-{[4-(difluoromethoxy)phenyl]amino}-1H-pyrazole-4-carboxamide] | 1
N#C[C@H]1C[C@H](NCC(F)(F)F)CC[C@@H]1n1cc(C(N)=O)c(Nc2ccc(Cl)cc2)n1 (single isomer, unassigned) [Example 28-225, 3-[(4-chlorophenyl)amino]-1-{(1S,2S,4R or 1R,2R,4S)-2-cyano-4-[(2,2,2-trifluoroethyl)amino]cyclohexyl}-1H-pyrazole-4-carboxamide] | 12
CO/N=C/c1ccc(Nc2nn([C@H]3CCCC[C@@H]3C#N)cc2C(N)=O)cc1 (single isomer, unassigned) [Example 39, 1-[(1S,2S or 1R, 2R)-2-Cyanocyclohexyl]-3-({4-[(methoxyimino)methyl]phenyl}amino)-1H-pyrazole-4-carboxamide] | 0.45
N#C[C@H]1C[C@@H](N2CCC2)CC[C@@H]1n1cc(C(N)=O)c(Nc2ccc(OC(F)F)cc2)n1 (single isomer, unassigned) [Example 28-103, 1-[(1S,2S,4S or 1R,2R,4R)-4-azetidin-1-yl-2-cyanocyclohexyl]-3-{[4-(difluoromethoxy)phenyl]amino}-1H-pyrazole-4-carboxamide] | 6
N#C[C@H]1C[C@@H](N2CCC2)CC[C@@H]1n1cc(C(N)=O)c(Nc2ccc(OC(F)F)cc2)n1 (single isomer, unassigned) [Example 28-118, 1-[(1S,2S,4S or 1R,2R,4R)-4-azetidin-1-yl-2-cyanocyclohexyl]-3-{[4-(difluoromethoxy)phenyl]amino}-1H-pyrazole-4-carboxamide] | 0.5
N#C[C@H]1C[C@@H](N2CC(O)(C(F)(F)F)C2)CC[C@@H]1n1cc(C(N)=O)c(Nc2ccc(C(F)(F)F)cc2)n1 (single isomer, unassigned) [Example 28-200, 1-{(1S,2S,4S or 1R,2R,4R)-2-cyano-4-[3-hydroxy-3-(trifluoromethyl)azetidin-1-yl]cyclohexyl}-3-{[4-(trifluoromethyl)phenyl]amino}-nvrazole-4-carboxamide] | 1
N#C[C@H]1CCCC[C@@H]1n1cc(C(N)=O)c(Nc2ccc([C@H](O)C(F)(F)F)nc2)n1 (single isomer, unassigned) [Example 17-50, 1-[(1S,2S or 1R,2R)-2-cyanocyclohexyl]-3-({6-[(1S or 1R)-2,2,2-trifluoro-1-hydroxyethyl]pyridin-3-yl}amino)-1H-pyrazole-4-carboxamide] | 0.2
CN(C)[C@H]1CC[C@H](n2cc(C(N)=O)c(Nc3ccc(F)cc3)n2)[C@@H](C#N)C1 (single isomer, unassigned) [Example 28-102, 1-[(1S,2S,4S or 1R,2R,4R)-2-cyano-4-(dimethylamino)cyclohexyl]-3-[(4-fluorophenyl)amino]-1H-pyrazole-4-carboxamide] | 1
C[C@H](N[C@@H]1CC[C@H](n2cc(C(N)=O)c(Nc3ccc(OC(F)F)nc3)n2)[C@@H](C#N)C1)C1CC1 (single isomer, unassigned) [Example 28-13, 1-[(1S,2S,4R or 1R,2R,4S)-2-cyano-4-{[(1S)-1-cyclopropylethyl]amino}cyclo-hexyl]-3-{[6-(difluoromethoxy)pyridin-3-yl]amino}-1H-pyrazole-4-carboxamide] | 11
CC(C)N[C@@H]1CC[C@H](n2cc(C(N)=O)c(Nc3ccc(S(=O)(=O)C(F)(F)F)cc3)n2)[C@@H](C#N)C1 (single isomer, unassigned) [Example 28-175, 1-{(1S,2S,4R or 1R,2R,4S)-2-cyano-4-[(1-methylethyl)amino]cyclohexyl}-3-({4-[(trifluoro-methyl)sulfonyl]phenyl}amino)-1H-pyrazole-4-carboxamide] | 0.35
N#C[C@H]1C[C@@H](C(=O)N[C@@H](C2CC2)C(F)(F)F)CC[C@@H]1n1cc(C(N)=O)c(Nc2ccc(Cl)cc2)n1 (single isomer, unassigned) [Example 35-24, 3-[(4-chlorophenyl)amino]-1-[(1S,2S,4S or 1R,2R,4R)-2-cyano-4-{[(1S)-1-cyclopropyl-2,2,2-trifluoroethyl]carbamoyl}cyclohexyl]-1H-pyrazole-4-carboxamide] | 180
N#C[C@@H]1CCCCC1n1cc(C(N)=O)c(Nc2ccc(S(=O)(=O)CC(F)(F)F)cc2)n1 (single isomer, unassigned) [Example 43-8, 1-[(1S,2S or 1R,2R)-2-cyanocyclohexyl]-3-({4-[(2,2,2-trifluoroethyl)sulfonyl]phenyl}amino)-1H-pyrazole-4-carboxamide] | 0.15
CN(CCC(F)(F)F)[C@@H]1CC[C@H](n2cc(C(N)=O)c(Nc3ccc(S(=O)(=O)C(F)(F)F)cc3)n2)[C@@H](C#N)C1 (single isomer, unassigned) [Example 28-170, 1-{(1S,2S,4R or 1R,2R,4S)-2-cyano-4-[methyl(3,3,3-trifluoropropyl)amino]cyclohexyl}-3-({4-[(trifluoromethyl)sulfonyl]phen-yl]amino)-1H-pyrazole-4-carboxamide] | 11
N#C[C@H]1C[C@H](O)CCC1n1cc(C(N)=O)c(Nc2ccnc(F)c2)n1 (single isomer, unassigned) [Example 25-25, 1-[(1S,2S,4R or 1R,2R,4S)-2-cyano-4-hydroxycyclohexyl]-3-[2-fluoropyridin-4-yl)amino]-1H-pyrazole-4-carboxamide] | 15
N#C[C@H]1C[C@H](O)CC[C@@H]1n1cc(C(N)=O)c(Nc2ccc(Cl)c(F)c2)n1 (single isomer, unassigned) [Example 25-3, 3-[(4-chloro-3-fluorophenyl)amino]-1-[(1S,2S,4R or 1R,2R,4S)-2-cyano-4-hydroxycyclohexyl]-1H-pyrazole-4-carboxamide] | 1
N#C[C@H]1CCCCC1n1cc(C(N)=O)c(Nc2ccc3c(c2)C=CS3(=O)=O)n1 (mixture of isomers) [Example 17-63, 1-[(1S,2S and 1R,2R)-2-cyanocyclohexyl]-3-[(1,1-dioxido-1-benzothiophen-5-yl)amino]-1H-pyrazole-4-carboxamide] | 0.45
N#C[C@H]1CCCC[C@@H]1n1cc(C(N)=O)c(Nc2ccnc(Cl)c2)n1 (racemic) [Example 17-7, 3-[(2-chloropyridin-4-yl)amino]-1-[(1S,2S and 1R,2R)-2-cyanocyclohexyl]-1H-pyrazole-4-carboxamide] | 4
CC(C)(C)NC(=O)c1cncc(Nc2nn([C@H]3CCCC[C@@H]3C#N)cc2C(N)=O)c1 (single isomer, unassigned) [Example 17-71, N-tert-butyl-5-({4-carbamoyl-1-[(1R,2R or 1S,2S)-2-cyanocyclohexyl]-1H-pyrazol-3-yl}amino)pyridine-3-carboxamide] | 60
N#C[C@H]1C[C@@H](C(=O)N2CCC(F)(F)C2)CC[C@@H]1n1cc(C(N)=O)c(Nc2ccc(Cl)cc2)n1 (single isomer, unassigned) [Example 35-28, 3-[(4-chlorophenyl)amino]-1-{(1S,2S,4S or 1R,2R,4R)-2-cyano-4-[(3,3-difluoropyrrolidin-1-yl)carbonyl]cyclohexyl}-1H-pyrazole-4-carboxamide] | 3
N#C[C@H]1C[C@H](N2CC(O)C2)CC[C@@H]1n1cc(C(N)=O)c(Nc2ccc(S(=O)(=O)C(F)(F)F)cc2)n1 (single isomer, unassigned) [Example 28-150, 1-[(1S,2S,4R or 1R,2R,4S)-2-cyano-4-(3-hydroxyazetidin-1-yl)cyclohexyl]-3-({4-[(trifluoro-methyl)sulfonyl]phenyl}amino)-1H-pyrazole-4-carboxamide] | 0.3
C[C@H]1C[C@H](C)N1[C@H]1CC[C@H](n2cc(C(N)=O)c(Nc3ccc(C(F)(F)F)cc3)n2)[C@@H](C#N)C1 (single isomer, unassigned) [Example 28-21, 1-{(1S,2S,4S or 1R,2R,4R)-2-cyano-4-[(2S,4S or 2R,4R)-2,4-dimethylazetidin-1-yl]cyclohexyl}-3-{[4-(trifluoromethyl)phenyl]amino}-1H-pyrazole-4-carboxamide] | 3
N#C[C@H]1C[C@H](N2CC3(CCC3)C2)CC[C@@H]1n1cc(C(N)=O)c(Nc2ccc(C(F)(F)F)cc2)n1 (single isomer, unassigned) [Example 28-24, 1-[(1S,2S,4R or 1R,2R,4S)-4-(2-azaspiro[3.3]hept-2-yl)-2-cyanocyclohexyl]-3-{[4-(trifluoromethyl)phenyl]amino}-1H-pyrazole-4-carboxamide] | 0.6
N#C[C@H]1C[C@@H](O)CC[C@@H]1n1cc(C(N)=O)c(Nc2ccc(Cl)c(F)c2)n1 (single isomer, unassigned) [Example 33-3, 3-[(4-chloro-3-fluorophenyl)amino]-1-[(1S,2S,4S or 1R,2R,4R)-2-cyano-4-hydroxycyclohexyl]-1H-pyrazole-4-carboxamide] | 2
